{"source": "patent US9243037B2", "about": "“Gramicidin a mutants that function as antibiotics with improved solubility and reduced toxicity” (Trustees of Boston College, priority 2011, dated 2016)", "key": {"[1]": {"system": "human red blood cells (hRBCs)", "experiment": "Haemoglobin release from human red blood cells", "type": "cell-based", "experimental": "Fresh human red blood cells (hRBCs) were centrifuged at 3500 rpm and washed with PBS buffer until the supernatant was clear. The hRBCs were then resuspended and diluted to a final concentration of 1% (v/v) in PBS and used immediately. 15 μL of serial dilution (2-fold) of peptides in DMSO or DMSO alone as a negative control were added to 1.5 mL of hRBCs in PBS. The resulting mixture was gently shaken to mix well and incubated at 37° C. for 1 hr, followed by centrifugation at 3500 rpm for 10 min using tabletop centrifuge. Aliquots (50 μL) of the supernatant (in triplicates) were transferred into a sterile 96-well plate containing 50 μL of H2O in each well. Release of hemoglobin was monitored at 415 nm using a microtiter plate reader. Percentage hemolysis was calculated using percentage hemolysis=100·(A415, peptide-A415,DMSO)/(A415, complete hemolysis-A415, DMSO), where complete hemolysis is achieved by mixing hRBCs with 1% TritonX-100."}, "physchem": {"experiment": "physchem", "type": "physicochemical", "experimental": "Peptide solubility in 10 mM HEPES buffer with 1% DMSO was measured by monitoring tryptophan absorbance. A concentrated (6.0-8.0 mM) peptide stock solution in DMSO was diluted 100 times (5 μL of the stock into 500 jtl of 10 mM HEPES buffer, pH 7.0). The mixture was sonicated for 30 mins and then subject to centrifugation (14,000 rpm, 10 mins) to remove possible precipitate. The supernatant (400 μL) was transferred to a quartz cuvette and the peptide concentration was determined by tryptophan absorbance at 280 nm (ε=22760 M−1 cm-1). The UV/Vis spectra of the supernatant can be seen in FIG. 1 and FIG. 5."}, "[2]": {"system": "Bacillus subtilis (ATCC 663)"}, "[3]": {"system": "Staphylococcus aureus (ATCC 6538)"}, "[4]": {"system": "Streptococcus pyogenes (ATCC 19615)"}, "FIG. 2": {"experiment": "FIG. 2", "experimental": "Table printed on a drawing sheet, FIG. 2\nWater solubility of gA variants is determined by Trp absorbance at 280 nm and summarized in the inserted table. Buffer used: 10 mM HEPES containing 1% DMSO. The solubility of gA-WT was obtained from reference.\nFirst reader's note: Saturation concentration (water solubility); the gA-WT cell carries its own unit (nM), and the marker [a] is not explained on the sheet."}, "bacteria": {"system": "bacteria", "experiment": "Antibacterial activity, strain not singled out", "details": "in words", "description": "Minimal Inhibitory Concentrations (MICs) were measured against Gram-negative Escherichia coli (BL21) and Gram-positive Bacillus subtilis (ATCC 663), Staphylococcus aureus (ATCC 6538), Streptococcus pyogenes (ATCC 19615) using the broth microdilution method.[2] Specifically, bacteria from a single colony were grown overnight in LB broth at 37° C. with agitation. An aliquot was taken and diluted (1:50 for E. coli, 1:20 for B. subtilis, 1:200 for S. aureus, 1: 10 for S. pyogenes) in fresh broth and cultured for another ˜3 hours until the cells reach mid-logarithmic phase (OD590-0.6). The cells were diluted to a concentration of ˜5×10^5 Colony Forming Units/ml (CFU/ml) and the bacteria suspension (200 μL) was added to each well of a sterile 96-well plate. Serial diluted (2-fold) peptides in DMSO (2 μL) were added in triplicates. The plates were shaken for 30 seconds to mix the peptide solution well with the broth, and then incubated at 37° C. overnight before the absorbance at 590 nm was monitored using a microtiter plate reader (SPECTRAMAX M5, Molecular Devices, Sunnyvale, Calif.). The viability of the bacteria was normalized as % survival=(ODpep,bac−ODbroth only)/(ODDMSO, bac-ODbroth only)×100%."}}, "note": "Marks after values point to notes of the source that are not given here."}
{"smiles": "CC(C)C[C@@H](NC(=O)[C@H](C)NC(=O)CNC(=O)[C@@H](NC=O)C(C)C)C(=O)N[C@@H](C)C(=O)N[C@@H](C(=O)N[C@H](C(=O)N[C@@H](C(=O)N[C@@H](Cc1c[nH]c2ccccc12)C(=O)N[C@H](CCCNC(=N)N)C(=O)N[C@@H](Cc1c[nH]c2ccccc12)C(=O)N[C@H](CCCNC(=N)N)C(=O)N[C@@H](Cc1c[nH]c2ccccc12)C(=O)N[C@H](CCCNC(=N)N)C(=O)N[C@@H](Cc1c[nH]c2ccccc12)C(=O)NCCO)C(C)C)C(C)C)C(C)C", "note": "(racemic) [gA-6, formyl-V-G-A-dL-A-dV-V-dV-W-dR-W-dR-W-dR-W-NHCH2CH2OH]", "values": [{"measurement": "HC50 (50% haemoglobin leakage relative to 1% TritonX-100)", "setting": "[1]", "value": 20, "unit": "µM"}, {"measurement": "water solubility, fold higher than wild-type Gramicidin A", "setting": "physchem", "value": "~800", "unit": "fold"}, {"measurement": "MICs B. Subtilius", "setting": "[2]; ATCC 663", "value": "2.5~5 μM"}, {"measurement": "MIC relative to wild-type Gramicidin A", "setting": "[2]; B. subtilis", "value": "equivalent to or ˜2-fold higher"}, {"measurement": "MIC relative to wild-type Gramicidin A", "setting": "[3]; S. Aureus", "value": "much higher MIC"}, {"measurement": "MICs S. Aureus", "setting": "[3]; Table 2, standard micro-dilution", "value": ">10 ^[e] μM"}, {"measurement": "MICs S. Pyogenes", "setting": "[4]; ATCC 19615", "value": 1.25, "unit": "µM"}, {"measurement": "MIC relative to wild-type Gramicidin A", "setting": "[4]; S. Pyogenes", "value": "equivalent to or ˜2-fold higher"}, {"measurement": "SAT. CONC/μM", "setting": "FIG. 2", "value": 43, "unit": "µM"}, {"measurement": "antibacterial activity / MIC", "setting": "bacteria", "value": "low μM potency"}]}
